{
  "source": "patent US20170071967A1",
  "about": "“IMMUNOGENIC LIPOSOMAL FORMULATION” (GlaxoSmithKline Biologicals, SA, priority 2014, published 2017)",
  "test_system": "rabbits",
  "test": "Rabbit pyrogenicity test (surrogate measure of incorporation into liposomes)",
  "assay_type": "in vivo",
  "conditions": "free (non-liposomal) CRX-601",
  "experimental": "The tests were performed at Pacific Biolabs (Hercules, Calif.) as per their SOP 16E-02.",
  "data": [
    {"compound": "CCCCCCCCCCC[C@H](CC(=O)N[C@H]1[C@H](OC[C@H](NC(=O)C[C@@H](CCCCCCCCCCC)OCCCCCCCCCC)C(=O)O)O[C@H](CO)[C@@H](OP(=O)(O)O)[C@@H]1OC(=O)C[C@@H](CCCCCCCCCCC)OCCCCCCCCCC)OCCCCCCCCCC", "note": "[CRX-601]", "values": [
      {"measurement": "max non-pyrogenic dose", "result": 0.0025, "unit": "µg/kg"}
    ]}
  ]
}
